# Measurements as given in PubChem BioAssay (NCI).
#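 Values below derive from 48-hour exposures of cells grown in 96-well plates, with endpoints linearly interpolated between the two concentrations bracketing the appropriate inhibition level. GI50 = concentration required for 50% inhibition of growth. The concentration for full growth arrest is given as TGI.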
# Experiments:
# Experiment in all cases: DTP human tumour cell line panel, 48 h
# 786-0 renal = test system: 786-0 renal
# A549 NSCLC = test system: A549 NSCLC
# ACHN renal = test system: ACHN renal
# BT-549 breast = test system: BT-549 breast
# CCRF-CEM leukemia = test system: CCRF-CEM leukemia
# COLO 205 colon = test system: COLO 205 colon
# DU-145 prostate = test system: DU-145 prostate
# EKVX NSCLC = test system: EKVX NSCLC
# HCC-2998 colon = test system: HCC-2998 colon
# HCT-116 colon = test system: HCT-116 colon
# HCT-15 colon = test system: HCT-15 colon
# HL-60(TB) leukemia = test system: HL-60(TB) leukemia
# HOP-62 NSCLC = test system: HOP-62 NSCLC
# HOP-92 NSCLC = test system: HOP-92 NSCLC
# HS 578T breast = test system: HS 578T breast
# HT29 colon = test system: HT29 colon
# IGROV1 ovarian = test system: IGROV1 ovarian
# K-562 leukemia = test system: K-562 leukemia
# KM12 colon = test system: KM12 colon
# M14 melanoma = test system: M14 melanoma
# MALME-3M melanoma = test system: MALME-3M melanoma
# MCF7 breast = test system: MCF7 breast
# MDA-MB-231 breast = test system: MDA-MB-231 breast
# MDA-MB-435 = test system: MDA-MB-435
# MDA-N = test system: MDA-N
# MOLT-4 leukemia = test system: MOLT-4 leukemia
# NCI-H23 lung = test system: NCI-H23 lung
# NCI-H460 lung = test system: NCI-H460 lung
# NCI-H522 lung = test system: NCI-H522 lung
# NCI/ADR-RES ovarian = test system: NCI/ADR-RES ovarian
# OVCAR-3 ovarian = test system: OVCAR-3 ovarian
# OVCAR-5 ovarian = test system: OVCAR-5 ovarian
# OVCAR-8 ovarian = test system: OVCAR-8 ovarian
# PC-3 prostate = test system: PC-3 prostate
# RPMI-8226 leukemia = test system: RPMI-8226 leukemia
# RXF 393 renal = test system: RXF 393 renal
# SF-268 CNS = test system: SF-268 CNS
# SF-295 CNS = test system: SF-295 CNS
# SF-539 CNS = test system: SF-539 CNS
# SK-MEL-28 melanoma = test system: SK-MEL-28 melanoma
# SK-MEL-5 melanoma = test system: SK-MEL-5 melanoma
# SK-OV-3 ovarian = test system: SK-OV-3 ovarian
# SN12C renal = test system: SN12C renal
# SNB-19 CNS = test system: SNB-19 CNS
# SNB-75 CNS = test system: SNB-75 CNS
# SW-620 colon = test system: SW-620 colon
# T-47D breast = test system: T-47D breast
# TK-10 renal = test system: TK-10 renal
# U251 CNS = test system: U251 CNS
# UACC-62 melanoma = test system: UACC-62 melanoma
smiles,measurement,setting,value
CCCCCCCC(=O)[O][Hg][CH2]C1COC([CH2][Hg][O]C(=O)CCCCCCC)CO1 (stereo not given),GI50,786-0 renal,7.95 µM
same,TGI,786-0 renal,30.4 µM
same,GI50,A549 NSCLC,20.3 µM
same,TGI,A549 NSCLC,47.2 µM
same,GI50,ACHN renal,13.9 µM
same,TGI,ACHN renal,26.9 µM
same,GI50,BT-549 breast,11.1 µM
same,TGI,BT-549 breast,23.1 µM
same,GI50,CCRF-CEM leukemia,1910 nM
same,TGI,CCRF-CEM leukemia,> 100 µM
same,GI50,COLO 205 colon,3.72 µM
same,TGI,COLO 205 colon,14.6 µM
same,GI50,DU-145 prostate,18.1 µM
same,TGI,DU-145 prostate,32.2 µM
same,GI50,EKVX NSCLC,30.8 µM
same,TGI,EKVX NSCLC,66.4 µM
same,GI50,HCC-2998 colon,18 µM
same,TGI,HCC-2998 colon,33.1 µM
same,GI50,HCT-116 colon,2290 nM
same,TGI,HCT-116 colon,8.26 µM
same,GI50,HCT-15 colon,9.54 µM
same,TGI,HCT-15 colon,26.2 µM
same,GI50,HL-60(TB) leukemia,2770 nM
same,TGI,HL-60(TB) leukemia,> 100 µM
same,GI50,HOP-62 NSCLC,17.2 µM
same,TGI,HOP-62 NSCLC,30.9 µM
same,GI50,HOP-92 NSCLC,5.85 µM
same,TGI,HOP-92 NSCLC,17.1 µM
same,GI50,HS 578T breast,16.8 µM
same,TGI,HS 578T breast,46.3 µM
same,GI50,HT29 colon,15.6 µM
same,TGI,HT29 colon,34.3 µM
same,GI50,IGROV1 ovarian,18 µM
same,TGI,IGROV1 ovarian,38.3 µM
same,GI50,K-562 leukemia,2090 nM
same,TGI,K-562 leukemia,> 100 µM
same,GI50,KM12 colon,16.3 µM
same,TGI,KM12 colon,30.6 µM
same,GI50,M14 melanoma,16.4 µM
same,TGI,M14 melanoma,30 µM
same,GI50,MALME-3M melanoma,3.24 µM
same,TGI,MALME-3M melanoma,11.6 µM
same,GI50,MCF7 breast,4.32 µM
same,TGI,MCF7 breast,18.3 µM
same,GI50,MDA-MB-231 breast,20.7 µM
same,TGI,MDA-MB-231 breast,50.8 µM
same,GI50,MDA-MB-435,12.9 µM
same,TGI,MDA-MB-435,25.8 µM
same,GI50,MDA-N,15.6 µM
same,TGI,MDA-N,30 µM
same,GI50,MOLT-4 leukemia,2260 nM
same,TGI,MOLT-4 leukemia,> 100 µM
same,GI50,NCI-H23 lung,14.2 µM
same,TGI,NCI-H23 lung,28.6 µM
same,GI50,NCI-H460 lung,18.2 µM
same,TGI,NCI-H460 lung,37.4 µM
same,GI50,NCI-H522 lung,4.8 µM
same,TGI,NCI-H522 lung,> 100 µM
same,GI50,NCI/ADR-RES ovarian,20.2 µM
same,TGI,NCI/ADR-RES ovarian,49.6 µM
same,GI50,OVCAR-3 ovarian,4.22 µM
same,TGI,OVCAR-3 ovarian,14.8 µM
same,GI50,OVCAR-5 ovarian,20.1 µM
same,TGI,OVCAR-5 ovarian,34.3 µM
same,GI50,OVCAR-8 ovarian,19.8 µM
same,TGI,OVCAR-8 ovarian,40.1 µM
same,GI50,PC-3 prostate,13.7 µM
same,TGI,PC-3 prostate,26.7 µM
same,GI50,RPMI-8226 leukemia,3.84 µM
same,TGI,RPMI-8226 leukemia,> 100 µM
same,GI50,RXF 393 renal,18.5 µM
same,TGI,RXF 393 renal,32.5 µM
same,GI50,SF-268 CNS,18.2 µM
same,TGI,SF-268 CNS,36.9 µM
same,GI50,SF-295 CNS,19 µM
same,TGI,SF-295 CNS,36.5 µM
same,GI50,SF-539 CNS,17.5 µM
same,TGI,SF-539 CNS,37.4 µM
same,GI50,SK-MEL-28 melanoma,14 µM
same,TGI,SK-MEL-28 melanoma,27 µM
same,GI50,SK-MEL-5 melanoma,11 µM
same,TGI,SK-MEL-5 melanoma,28.8 µM
same,GI50,SK-OV-3 ovarian,13.2 µM
same,TGI,SK-OV-3 ovarian,27.6 µM
same,GI50,SN12C renal,15.7 µM
same,TGI,SN12C renal,30.5 µM
same,GI50,SNB-19 CNS,16.1 µM
same,TGI,SNB-19 CNS,29.5 µM
same,GI50,SNB-75 CNS,15.3 µM
same,TGI,SNB-75 CNS,34.6 µM
same,GI50,SW-620 colon,2910 nM
same,TGI,SW-620 colon,19.5 µM
same,GI50,T-47D breast,13.1 µM
same,TGI,T-47D breast,46.9 µM
same,GI50,TK-10 renal,19.6 µM
same,TGI,TK-10 renal,33.7 µM
same,GI50,U251 CNS,15.2 µM
same,TGI,U251 CNS,28.6 µM
same,GI50,UACC-62 melanoma,17.5 µM
same,TGI,UACC-62 melanoma,45.3 µM
